In the NIST ThermoML archive (doi:10.1016/j.jct.2018.11.003):

Assay: cn = amount concentration of the nth substance listed, in mol/dm3
Settings: 298.15 K, 101.3 kPa, Liquid, Taylor dispersion method

## O=C(O)CC(O)(CC(=O)O)C(=O)O [citric acid] + O
c1 = 0.002
  binary diffusion coefficient: 8.48e-10 m2/s
c1 = 0.00499
  binary diffusion coefficient: 7.9e-10 m2/s
c1 = 0.00997
  binary diffusion coefficient: 7.6e-10 m2/s
c1 = 0.05
  binary diffusion coefficient: 7.19e-10 m2/s

## O=C([O-])CC(O)(CC(=O)[O-])C(=O)[O-].O=C([O-])CC(O)(CC(=O)[O-])C(=O)[O-].[Ca+2].[Ca+2].[Ca+2] [calcium citrate] + O
c1 = 0.0002
  binary diffusion coefficient: 6.18e-10 m2/s
c1 = 0.000402
  binary diffusion coefficient: 6.18e-10 m2/s
c1 = 0.000603
  binary diffusion coefficient: 6.16e-10 m2/s
c1 = 0.000801
  binary diffusion coefficient: 6.11e-10 m2/s
